Measured values as given in the NIST ThermoML archive (doi:10.1021/je5001507).

Tests used:
[1] = for mass density / viscosity / electrical conductivity: 101.33 kPa, Liquid; for mass density: Vibrating tube method; for surface tension liquid-gas: plate method; for electrical conductivity: Alternating current cell with electrodes
[2] = refractive index (Na D-line) (dimensionless); details: 101.33 kPa, Liquid, Standard Abbe refractometry

CC(C)C[NH2+]CCCCS(=O)(=O)O.O=S(=O)([O-])O [N-isobutyl-4-sulfobutan-1-aminium hydrogen sulfate]
Details | electrical conductivity, [1] [S/m] | mass density, [1] [kg/m3] | refractive index, [2] | surface tension liquid-gas, [1] [mN/m] | viscosity, [1] [mPa·s]
293.15 K | – | 1359.08 | 1.48143 | – | –
298.15 K | 0.593 | – | 1.4803 | 47.15 | 14433
303.15 K | 0.757 | 1353.21 | 1.47918 | 46.79 | 9450
308.15 K | 1.04 | – | 1.47804 | 46.48 | 6033
313.15 K | 1.32 | 1347.39 | 1.47689 | 46.12 | 4267
318.15 K | 1.65 | – | 1.47576 | 45.74 | 2967
323.15 K | 2.16 | 1341.63 | 1.47461 | 45.3 | 2117
328.15 K | 2.53 | – | 1.4734 | 44.93 | 1550
333.15 K | 3.01 | 1335.95 | 1.47212 | – | 1033
338.15 K | 3.67 | – | – | – | 766.7
343.15 K | 4.29 | 1330.29 | – | – | 633.3
348.15 K | 4.96 | – | – | – | 483.3
353.15 K | 5.61 | 1324.66 | – | – | 383.3
358.15 K | – | – | – | – | 316.7
363.15 K | – | 1319.09 | – | – | 266.7
368.15 K | – | – | – | – | 200
373.15 K | – | – | – | – | 166.7

CC(C)C[NH2+]CCCS(=O)(=O)O.O=S(=O)([O-])O [N-isobutyl-3-sulfopropan-1-aminium hydrogen sulfate]
Details | electrical conductivity, [1] [S/m] | mass density, [1] [kg/m3] | refractive index, [2] | surface tension liquid-gas, [1] [mN/m] | viscosity, [1] [mPa·s]
293.15 K | – | 1387.92 | 1.50559 | – | –
298.15 K | 0.00856 | – | 1.50436 | 52.18 | –
303.15 K | 0.0145 | 1383.65 | 1.50314 | 51.64 | –
308.15 K | 0.0235 | – | 1.50205 | 51.14 | 14383
313.15 K | 0.0367 | 1377.6 | 1.5008 | 50.69 | 9083
318.15 K | 0.0526 | – | 1.49974 | 50.15 | 5533
323.15 K | 0.0713 | 1371.59 | 1.49851 | 49.58 | 3833
328.15 K | 0.104 | – | 1.49756 | 48.98 | 2867
333.15 K | 0.14 | 1365.64 | 1.4963 | – | 1983
338.15 K | 0.177 | – | – | – | 1333
343.15 K | 0.221 | 1359.71 | – | – | 1033
348.15 K | 0.28 | – | – | – | 766.7
353.15 K | 0.353 | 1353.8 | – | – | 616.7
358.15 K | – | – | – | – | 483.3
363.15 K | – | 1347.97 | – | – | 416.7
368.15 K | – | – | – | – | 333.3
373.15 K | – | – | – | – | 283.3
